Data published in patent US7396839B2, “Crystalline forms of gatifloxacin” (Teva Pharmaceuticals USA, Inc., priority 2002, dated 2008).

Legend:
[1] = storage at ambient temperature and pressure (crystalline form conversion); type: physicochemical
[2] = heating of the crystalline form at about 50° C.; type: physicochemical; details: heating at about 50° C.
[3] = among the forms of U.S. Pat. No. 6,413,969; cited from earlier work
[4] = room temperature; among the forms of U.S. Pat. No. 6,413,969; cited from earlier work
[5] = compared with the hemihydrate; cited from earlier work
[6] = prolonged (e.g. 2 months) storage at ambient temperature and pressure

SMILES: COc1c(N2CCNC(C)C2)c(F)cc2c(=O)c(C(=O)O)cn(C3CC3)c12 (racemic) [form L, (±) 1-cyclopropyl-6-fluoro-1,4-dihydro-8-methoxy-7-(3-methyl-1-piperazinyl)-4-oxo-3-quinolinecarboxylic acid]
- crystalline form after prolonged storage [1, 6]: converts to form Ω

SMILES: COc1c(N2CCNC(C)C2)c(F)cc2c(=O)c(C(=O)O)cn(C3CC3)c12 (racemic) [form M, (±) 1-cyclopropyl-6-fluoro-1,4-dihydro-8-methoxy-7-(3-methyl-1-piperazinyl)-4-oxo-3-quinolinecarboxylic acid]
- crystalline form after prolonged storage [1, 6]: converts to form T2RP (hemihydrate)

SMILES: COc1c(N2CCNC(C)C2)c(F)cc2c(=O)c(C(=O)O)cn(C3CC3)c12 (racemic) [form P, (±) 1-cyclopropyl-6-fluoro-1,4-dihydro-8-methoxy-7-(3-methyl-1-piperazinyl)-4-oxo-3-quinolinecarboxylic acid]
- crystalline form after heating [2]: results in gatifloxacin form T1
- crystalline form after prolonged storage ([1]; prolonged (e.g. 1 month) storage at ambient temperature and pressure): converts to gatifloxacin sesquihydrate

SMILES: COc1c(N2CCNC(C)C2)c(F)cc2c(=O)c(C(=O)O)cn(C3CC3)c12 (stereo not shown) [pentahydrate, gatifloxacin]
- thermodynamic stability [3]: most thermodynamically stable form
- aqueous solubility [4]: lowest

SMILES: COc1c(N2CCNC(C)C2)c(F)cc2c(=O)c(C(=O)O)cn(C3CC3)c12 (stereo not shown) [sesquihydrate, gatifloxacin]
- stability in manufacturing [5]: more stable
